Measurements reported in article PMC8698333 (Biomedicines, 2021).
No end group written: not given here.

Legend:
hKOR with Gα3 subunit = target: T1, hKOR with Gα3 subunit (Homo sapiens, UniProt P41145); assay: TRUPATH (BRET) G-protein dissociation, Gα3 subunit; assay type: cell-based; settings: mean ± SEM
T1 construct: alpha7 nicotinic receptor signal peptide (N); expressed in transfected cells; host or cells: HEK293, transient

[1] = target: T2, hKOR (β-arrestin recruitment) (Homo sapiens, UniProt P41145); assay: PRESTO-Tango β-arrestin recruitment assay; assay type: cell-based; settings: SEM
T2 construct: tTA (Tango cassette); expressed in transfected cells; host or cells: HEK293, transient
T2 sequence (P41145 whole entry): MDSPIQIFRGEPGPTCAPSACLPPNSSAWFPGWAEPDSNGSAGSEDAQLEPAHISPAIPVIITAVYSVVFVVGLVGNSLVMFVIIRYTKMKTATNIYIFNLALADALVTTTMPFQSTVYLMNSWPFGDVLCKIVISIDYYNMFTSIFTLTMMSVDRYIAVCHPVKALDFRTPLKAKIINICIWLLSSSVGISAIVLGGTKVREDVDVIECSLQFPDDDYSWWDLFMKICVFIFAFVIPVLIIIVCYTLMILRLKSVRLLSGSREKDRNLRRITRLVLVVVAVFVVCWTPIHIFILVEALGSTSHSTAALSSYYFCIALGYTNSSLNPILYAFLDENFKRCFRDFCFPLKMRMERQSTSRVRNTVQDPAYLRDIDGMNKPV
T2 sequence (P32121 whole entry partner): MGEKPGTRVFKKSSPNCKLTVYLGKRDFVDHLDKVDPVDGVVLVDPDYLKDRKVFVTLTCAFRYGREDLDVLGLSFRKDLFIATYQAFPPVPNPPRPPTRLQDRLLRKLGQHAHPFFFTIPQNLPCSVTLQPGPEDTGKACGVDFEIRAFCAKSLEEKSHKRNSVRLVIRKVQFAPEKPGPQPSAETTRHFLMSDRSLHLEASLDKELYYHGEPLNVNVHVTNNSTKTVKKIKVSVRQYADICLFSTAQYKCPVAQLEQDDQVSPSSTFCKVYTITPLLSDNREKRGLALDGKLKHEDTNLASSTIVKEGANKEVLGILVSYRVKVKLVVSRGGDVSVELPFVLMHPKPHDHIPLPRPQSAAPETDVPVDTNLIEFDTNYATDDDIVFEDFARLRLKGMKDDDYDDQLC

hKOR with Gα1 subunit = target: T3, hKOR with Gα1 subunit (Homo sapiens, UniProt P41145); assay: TRUPATH (BRET) G-protein dissociation, Gα1 subunit; assay type: cell-based; settings: SEM
T3 construct: alpha7 nicotinic receptor signal peptide (N); expressed in transfected cells; host or cells: HEK293, transient
T3 sequence (P16520 whole entry): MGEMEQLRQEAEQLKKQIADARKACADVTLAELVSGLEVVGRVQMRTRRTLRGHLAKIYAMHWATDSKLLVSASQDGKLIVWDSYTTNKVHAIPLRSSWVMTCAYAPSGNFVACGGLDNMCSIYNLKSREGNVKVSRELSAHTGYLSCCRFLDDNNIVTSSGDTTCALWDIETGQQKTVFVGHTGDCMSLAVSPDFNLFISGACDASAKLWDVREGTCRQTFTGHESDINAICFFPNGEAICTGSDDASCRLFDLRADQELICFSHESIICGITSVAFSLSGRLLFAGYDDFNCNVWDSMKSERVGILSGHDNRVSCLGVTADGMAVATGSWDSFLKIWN
T3 sequence (P63096 whole entry, further chain): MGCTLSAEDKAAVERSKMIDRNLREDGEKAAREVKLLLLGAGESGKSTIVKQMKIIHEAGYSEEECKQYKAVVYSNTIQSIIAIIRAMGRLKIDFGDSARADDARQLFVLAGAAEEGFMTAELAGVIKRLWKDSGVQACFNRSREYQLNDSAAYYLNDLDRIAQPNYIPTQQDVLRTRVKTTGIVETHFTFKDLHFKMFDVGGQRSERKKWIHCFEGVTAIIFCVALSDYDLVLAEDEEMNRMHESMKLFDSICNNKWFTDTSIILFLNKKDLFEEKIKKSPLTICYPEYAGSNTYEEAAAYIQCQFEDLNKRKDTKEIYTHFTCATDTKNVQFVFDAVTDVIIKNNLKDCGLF
T3 sequence (P41145 whole entry): as the sequence (P41145 whole entry) above
T3 sequence (O14610 1-66, further chain): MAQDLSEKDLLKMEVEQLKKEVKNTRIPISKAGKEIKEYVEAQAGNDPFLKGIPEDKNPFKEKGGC

hKOR with GαZ subunit = target: T4, hKOR with GαZ subunit (Homo sapiens, UniProt P41145); assay: TRUPATH (BRET) G-protein dissociation, GαZ subunit; assay type: cell-based; settings: SEM
T4 construct: alpha7 nicotinic receptor signal peptide (N); expressed in transfected cells; host or cells: HEK293, transient
T4 sequence (P41145 whole entry): as the sequence (P41145 whole entry) above
T4 sequence (P19086 whole entry partner): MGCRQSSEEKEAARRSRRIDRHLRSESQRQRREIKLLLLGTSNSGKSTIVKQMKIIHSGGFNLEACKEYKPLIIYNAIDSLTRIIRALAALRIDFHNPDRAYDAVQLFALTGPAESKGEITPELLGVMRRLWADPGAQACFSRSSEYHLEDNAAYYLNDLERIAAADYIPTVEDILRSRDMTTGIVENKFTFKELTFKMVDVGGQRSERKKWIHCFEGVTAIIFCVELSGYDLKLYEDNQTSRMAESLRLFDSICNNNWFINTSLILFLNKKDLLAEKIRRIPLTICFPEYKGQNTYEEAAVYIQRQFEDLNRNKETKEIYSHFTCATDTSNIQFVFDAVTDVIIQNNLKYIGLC
T4 sequence (P16520 whole entry partner): as the sequence (P16520 whole entry) above
T4 sequence (P63211 1-71 partner limits assumed): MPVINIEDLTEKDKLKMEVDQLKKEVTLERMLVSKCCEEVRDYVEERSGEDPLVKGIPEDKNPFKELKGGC

hKOR with Gα2 subunit = target: T5, hKOR with Gα2 subunit (Homo sapiens, UniProt P41145); assay: TRUPATH (BRET) G-protein dissociation, Gα2 subunit; assay type: cell-based; settings: SEM
T5 construct: alpha7 nicotinic receptor signal peptide (N); expressed in transfected cells; host or cells: HEK293, transient
T5 sequence (P41145 whole entry): as the sequence (P41145 whole entry) above
T5 sequence (P04899 whole entry partner): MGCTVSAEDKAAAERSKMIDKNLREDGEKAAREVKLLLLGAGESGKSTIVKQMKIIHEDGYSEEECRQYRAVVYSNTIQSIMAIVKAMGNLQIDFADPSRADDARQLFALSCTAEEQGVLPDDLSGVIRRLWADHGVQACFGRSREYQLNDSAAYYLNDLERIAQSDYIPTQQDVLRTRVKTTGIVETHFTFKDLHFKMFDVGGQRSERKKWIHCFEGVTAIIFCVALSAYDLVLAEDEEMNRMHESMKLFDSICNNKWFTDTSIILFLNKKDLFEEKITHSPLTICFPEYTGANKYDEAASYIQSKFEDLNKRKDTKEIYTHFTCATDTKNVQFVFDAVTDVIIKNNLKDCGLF
T5 sequence (P16520 whole entry partner): as the sequence (P16520 whole entry) above
T5 sequence (Q9UK08 1-67 partner limits assumed): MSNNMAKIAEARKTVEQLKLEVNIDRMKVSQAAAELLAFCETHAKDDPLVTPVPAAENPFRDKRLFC

[2] = target: T6, human KOR receptors (hKOR) (Homo sapiens, UniProt P41145); assay: [35S]GTPγS functional assay on hKOR-CHO cell membranes; assay type: biochemical; settings: SEM
T6 construct: expressed in transfected cells
T6 sequence (P41145 whole entry): as the sequence (P41145 whole entry) above
Method: CHO cells stably transfected with human KOR receptors (hKOR-CHO) were courtesy of Prof. Liu-Chen (Temple University, Philadelphia, PA, USA). Cells were grown in Gibco™ Dulbecco’s Minimal Essential Medium (DMEM) supplemented with 10% FBS, Glutamax (100 μg/mL), penicillin/ streptomycin (100 μg/mL) and geneticin (G418, 400 μg/mL). […] Cell cultures were maintained in a Heracell™ 150i CO2 incubator at 37 °C and 5.0% CO2.
Functional assays were conducted on hKOR-CHO cell membranes. Membranes were prepared in 50 mM Tris-HCl buffer pH 7.7. Cells were harvested by scraping the plates with a rubber policeman and were then centrifuged at 500× g for 10 min. The cell pellet was resuspended in Tris-HCl, homogenized with a Dounce homogenizer and centrifuged at 27,000× g for 15 min. […] The protein concentration of the homogenate was determined by Biuret reaction (RotiQuant Universal, Carl Roth) and stored at −70 °C until use.
To perform the GTPγS assay, membrane homogenates (10 μg/reaction tube) were diluted in HEPES buffer (20 mM) together with 10 μM GDP and 0.05 nM [^35S]GTPγS (Perkin Elmer, MA, USA). […] Non-specific binding was determined using 10 μM unlabeled GTPγS (Sigma-Aldrich, Vienna, Austria). Samples were filtered over glass fiber filters (GF/B Whatman) and the bound radioactivity was measured by liquid scintillation counting as counts per minute (CPM).

hKOR with GαoA subunit = hKOR with GαoA subunit (Homo sapiens, UniProt P41145); assay: cell-based; settings: SEM
hKOR with GαoA subunit, sequence (P16520 whole entry): as the sequence (P16520 whole entry) above
hKOR with GαoA subunit, sequence (P41145 whole entry): as the sequence (P41145 whole entry) above
hKOR with GαoA subunit, sequence (P09471 whole entry, further chain): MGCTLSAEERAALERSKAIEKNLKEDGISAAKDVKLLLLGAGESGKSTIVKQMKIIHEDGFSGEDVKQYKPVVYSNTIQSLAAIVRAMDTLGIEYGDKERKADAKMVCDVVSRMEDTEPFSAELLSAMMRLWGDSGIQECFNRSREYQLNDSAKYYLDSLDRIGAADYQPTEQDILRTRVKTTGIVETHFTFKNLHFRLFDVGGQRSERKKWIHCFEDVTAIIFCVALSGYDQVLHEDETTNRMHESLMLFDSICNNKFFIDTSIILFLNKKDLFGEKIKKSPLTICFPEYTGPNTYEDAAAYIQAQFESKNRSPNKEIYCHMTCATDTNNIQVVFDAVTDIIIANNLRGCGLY
hKOR with GαoA subunit, sequence (Q9UK08 1-67, further chain): as the sequence (Q9UK08 1-67 partner limits assumed) above

hKOR with GαoB subunit = target: T7, hKOR with GαoB subunit (Homo sapiens, UniProt P41145); assay: TRUPATH (BRET) G-protein dissociation, GαoB subunit; assay type: cell-based; settings: SEM
T7 construct: alpha7 nicotinic receptor signal peptide (N); expressed in transfected cells; host or cells: HEK293, transient
T7 sequence (P41145 whole entry): as the sequence (P41145 whole entry) above
T7 sequence (P09471 1-354 isoform P09471-2 partner): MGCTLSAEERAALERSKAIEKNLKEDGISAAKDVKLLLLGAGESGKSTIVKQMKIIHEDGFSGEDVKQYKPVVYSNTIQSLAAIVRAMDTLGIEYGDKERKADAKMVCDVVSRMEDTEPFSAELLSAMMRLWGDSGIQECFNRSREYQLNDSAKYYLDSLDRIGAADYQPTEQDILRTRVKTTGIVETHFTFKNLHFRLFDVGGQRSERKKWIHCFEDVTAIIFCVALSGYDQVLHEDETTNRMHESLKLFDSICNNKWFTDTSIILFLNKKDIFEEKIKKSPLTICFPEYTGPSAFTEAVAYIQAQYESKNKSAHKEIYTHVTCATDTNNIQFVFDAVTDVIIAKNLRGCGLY
T7 sequence (P16520 whole entry partner): as the sequence (P16520 whole entry) above
T7 sequence (Q9UK08 1-67 partner limits assumed): as the sequence (Q9UK08 1-67 partner limits assumed) above

[3] = EC50, TRUPATH α3 (#, same cell batch), HEK293 with hKOR and Gα3, signal bias series marked #, performed on the same cell batch, n = 9

T1 sequence (P41145 whole entry): as the sequence (P41145 whole entry) above
T1 sequence (P08754 whole entry partner): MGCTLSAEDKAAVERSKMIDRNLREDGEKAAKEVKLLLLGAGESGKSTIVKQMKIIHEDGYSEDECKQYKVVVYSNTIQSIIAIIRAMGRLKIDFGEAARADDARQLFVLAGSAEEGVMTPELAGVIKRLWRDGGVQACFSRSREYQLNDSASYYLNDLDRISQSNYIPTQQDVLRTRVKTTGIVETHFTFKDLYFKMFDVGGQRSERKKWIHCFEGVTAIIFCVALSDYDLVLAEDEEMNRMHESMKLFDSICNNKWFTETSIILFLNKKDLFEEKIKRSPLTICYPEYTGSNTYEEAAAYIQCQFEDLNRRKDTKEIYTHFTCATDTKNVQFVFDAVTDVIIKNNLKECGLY
T1 sequence (P16520 whole entry partner): as the sequence (P16520 whole entry) above
T1 sequence (O14610 1-66 partner limits assumed): as the sequence (O14610 1-66, further chain) above

| Sequence | EC50 (hKOR with Gα3 subunit; [3]) [nM] | EC50 [1] [nM] | EC50 (hKOR with Gα1 subunit) [nM] | EC50 (hKOR with GαZ subunit) [nM] | EC50 (hKOR with Gα2 subunit) [nM] | EC50 (hKOR with Gα3 subunit; EC50, TRUPATH α3, HEK293 transiently transfected with hKOR and Gα3, 30 min, n = 6 (transducerome series)) [nM] | EC50 [2] [nM] | EC50 (hKOR with GαoA subunit) [nM] | EC50 (hKOR with GαoB subunit) [nM] |
| --- | --- | --- | --- | --- | --- | --- | --- | --- | --- |
| YGGFLRRICPKLKWDNQ [DynA_R9C] | 24 ± 9 | 88 ± 32 |  |  |  |  |  |  |  |
| YGGFSRRIRPKLKWDNQ [DynA_L5S] | 78 ± 37 | 236 ± 65 |  |  |  |  |  |  |  |
| YGGFLWRIRPKLKWDNQ [DynA_R6W] | 133 ± 75 | 670 ± 215 | 211 ± 36 | 27 ± 9 | 78 ± 42 | 161 ± 51 | 105 ± 23 | 133 ± 80 | 62 ± 15 |
